Test results published in PubChem BioAssay (NCI).
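Five compound concentrations were applied to cells in 96-well plates for 48 hours; endpoints were derived by simple linear interpolation of the resulting dose-response curve. GI50 marks 50% less growth. TGI: concentration producing complete growth inhibition.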

Tests used:
Assay in all cases: NCI tumour cell line growth inhibition, 48 h
UACC-62 melanoma = test system: UACC-62 melanoma
OVCAR-4 ovarian = test system: OVCAR-4 ovarian
SK-MEL-2 melanoma = test system: SK-MEL-2 melanoma
TK-10 renal = test system: TK-10 renal
SNB-19 CNS = test system: SNB-19 CNS
SK-MEL-28 melanoma = test system: SK-MEL-28 melanoma
CAKI-1 renal = test system: CAKI-1 renal
LOX IMVI melanoma = test system: LOX IMVI melanoma
OVCAR-8 ovarian = test system: OVCAR-8 ovarian
MALME-3M melanoma = test system: MALME-3M melanoma
SK-MEL-5 melanoma = test system: SK-MEL-5 melanoma
786-0 renal = test system: 786-0 renal
NCI/ADR-RES ovarian = test system: NCI/ADR-RES ovarian
M14 melanoma = test system: M14 melanoma
COLO 205 colon = test system: COLO 205 colon
UACC-257 melanoma = test system: UACC-257 melanoma
DU-145 prostate = test system: DU-145 prostate
NCI-H460 lung = test system: NCI-H460 lung
CCRF-CEM leukemia = test system: CCRF-CEM leukemia
BT-549 breast = test system: BT-549 breast
SF-295 CNS = test system: SF-295 CNS
HL-60(TB) leukemia = test system: HL-60(TB) leukemia
SW-620 colon = test system: SW-620 colon
T-47D breast = test system: T-47D breast
NCI-H23 lung = test system: NCI-H23 lung
HT29 colon = test system: HT29 colon
RPMI-8226 leukemia = test system: RPMI-8226 leukemia
SR leukemia = test system: SR leukemia
HS 578T breast = test system: HS 578T breast
MCF7 breast = test system: MCF7 breast
MDA-MB-435 = test system: MDA-MB-435
KM12 colon = test system: KM12 colon
HOP-62 NSCLC = test system: HOP-62 NSCLC
HCC-2998 colon = test system: HCC-2998 colon
RXF 393 renal = test system: RXF 393 renal
MDA-MB-468 breast = test system: MDA-MB-468 breast
MOLT-4 leukemia = test system: MOLT-4 leukemia
SF-539 CNS = test system: SF-539 CNS
SNB-75 CNS = test system: SNB-75 CNS
OVCAR-5 ovarian = test system: OVCAR-5 ovarian
SF-268 CNS = test system: SF-268 CNS
HCT-116 colon = test system: HCT-116 colon
A498 renal = test system: A498 renal
HCT-15 colon = test system: HCT-15 colon
IGROV1 ovarian = test system: IGROV1 ovarian
EKVX NSCLC = test system: EKVX NSCLC
OVCAR-3 ovarian = test system: OVCAR-3 ovarian
K-562 leukemia = test system: K-562 leukemia
A549 NSCLC = test system: A549 NSCLC
PC-3 prostate = test system: PC-3 prostate
HOP-92 NSCLC = test system: HOP-92 NSCLC
MDA-MB-231 breast = test system: MDA-MB-231 breast
UO-31 renal = test system: UO-31 renal
SN12C renal = test system: SN12C renal
NCI-H522 lung = test system: NCI-H522 lung
NCI-H226 lung = test system: NCI-H226 lung
U251 CNS = test system: U251 CNS
ACHN renal = test system: ACHN renal
SK-OV-3 ovarian = test system: SK-OV-3 ovarian

COCOc1cc2c(=O)c(C)c(C(=O)N[C@@H](Cc3ccccc3)C(O)C(=O)NCc3ccccc3)oc2cc1OC (stereo partly drawn)
GI50 (UACC-62 melanoma): > 100 µM | TGI (UACC-62 melanoma): > 100 µM | GI50 (OVCAR-4 ovarian): > 100 µM | TGI (OVCAR-4 ovarian): > 100 µM | GI50 (SK-MEL-2 melanoma): > 100 µM | TGI (SK-MEL-2 melanoma): > 100 µM | GI50 (TK-10 renal): > 100 µM | TGI (TK-10 renal): > 100 µM | GI50 (SNB-19 CNS): > 100 µM | TGI (SNB-19 CNS): > 100 µM | GI50 (SK-MEL-28 melanoma): > 100 µM | TGI (SK-MEL-28 melanoma): > 100 µM | GI50 (CAKI-1 renal): > 100 µM | TGI (CAKI-1 renal): > 100 µM | GI50 (LOX IMVI melanoma): > 100 µM | TGI (LOX IMVI melanoma): > 100 µM | GI50 (OVCAR-8 ovarian): > 100 µM | TGI (OVCAR-8 ovarian): > 100 µM | GI50 (MALME-3M melanoma): > 100 µM | TGI (MALME-3M melanoma): > 100 µM | GI50 (SK-MEL-5 melanoma): > 100 µM | TGI (SK-MEL-5 melanoma): > 100 µM | GI50 (786-0 renal): > 100 µM | TGI (786-0 renal): > 100 µM | GI50 (NCI/ADR-RES ovarian): > 100 µM | TGI (NCI/ADR-RES ovarian): > 100 µM | GI50 (M14 melanoma): 62.5 µM | TGI (M14 melanoma): > 100 µM | GI50 (COLO 205 colon): > 100 µM | TGI (COLO 205 colon): > 100 µM | GI50 (UACC-257 melanoma): > 100 µM | TGI (UACC-257 melanoma): > 100 µM | GI50 (DU-145 prostate): > 100 µM | TGI (DU-145 prostate): > 100 µM | GI50 (NCI-H460 lung): > 100 µM | TGI (NCI-H460 lung): > 100 µM | GI50 (CCRF-CEM leukemia): > 100 µM | TGI (CCRF-CEM leukemia): > 100 µM | GI50 (BT-549 breast): > 100 µM | TGI (BT-549 breast): > 100 µM | GI50 (SF-295 CNS): > 100 µM | TGI (SF-295 CNS): > 100 µM | GI50 (HL-60(TB) leukemia): > 100 µM | TGI (HL-60(TB) leukemia): > 100 µM | GI50 (SW-620 colon): > 100 µM | TGI (SW-620 colon): > 100 µM | GI50 (T-47D breast): > 100 µM | TGI (T-47D breast): > 100 µM | GI50 (NCI-H23 lung): > 100 µM | TGI (NCI-H23 lung): > 100 µM | GI50 (HT29 colon): > 100 µM | TGI (HT29 colon): > 100 µM | GI50 (RPMI-8226 leukemia): > 100 µM | TGI (RPMI-8226 leukemia): > 100 µM | GI50 (SR leukemia): > 100 µM | TGI (SR leukemia): > 100 µM | GI50 (HS 578T breast): > 100 µM | TGI (HS 578T breast): > 100 µM | GI50 (MCF7 breast): > 100 µM | TGI (MCF7 breast): > 100 µM | GI50 (MDA-MB-435): > 100 µM | TGI (MDA-MB-435): > 100 µM | GI50 (KM12 colon): > 100 µM | TGI (KM12 colon): > 100 µM | GI50 (HOP-62 NSCLC): > 100 µM | TGI (HOP-62 NSCLC): > 100 µM | GI50 (HCC-2998 colon): > 100 µM | TGI (HCC-2998 colon): > 100 µM | GI50 (RXF 393 renal): > 100 µM | TGI (RXF 393 renal): > 100 µM | GI50 (MDA-MB-468 breast): > 100 µM | TGI (MDA-MB-468 breast): > 100 µM | GI50 (MOLT-4 leukemia): > 100 µM | TGI (MOLT-4 leukemia): > 100 µM | GI50 (SF-539 CNS): 38.3 µM | TGI (SF-539 CNS): > 100 µM | GI50 (SNB-75 CNS): 96.7 µM | TGI (SNB-75 CNS): > 100 µM | GI50 (OVCAR-5 ovarian): > 100 µM | TGI (OVCAR-5 ovarian): > 100 µM | GI50 (SF-268 CNS): > 100 µM | TGI (SF-268 CNS): > 100 µM | GI50 (HCT-116 colon): > 100 µM | TGI (HCT-116 colon): > 100 µM | GI50 (A498 renal): > 100 µM | TGI (A498 renal): > 100 µM | GI50 (HCT-15 colon): > 100 µM | TGI (HCT-15 colon): > 100 µM | GI50 (IGROV1 ovarian): > 100 µM | TGI (IGROV1 ovarian): > 100 µM | GI50 (EKVX NSCLC): > 100 µM | TGI (EKVX NSCLC): > 100 µM | GI50 (OVCAR-3 ovarian): > 100 µM | TGI (OVCAR-3 ovarian): > 100 µM | GI50 (K-562 leukemia): > 100 µM | TGI (K-562 leukemia): > 100 µM | GI50 (A549 NSCLC): > 100 µM | TGI (A549 NSCLC): > 100 µM | GI50 (PC-3 prostate): > 100 µM | TGI (PC-3 prostate): > 100 µM | GI50 (HOP-92 NSCLC): > 100 µM | TGI (HOP-92 NSCLC): > 100 µM | GI50 (MDA-MB-231 breast): > 100 µM | TGI (MDA-MB-231 breast): > 100 µM | GI50 (UO-31 renal): > 100 µM | TGI (UO-31 renal): > 100 µM | GI50 (SN12C renal): > 100 µM | TGI (SN12C renal): > 100 µM | GI50 (NCI-H522 lung): > 100 µM | TGI (NCI-H522 lung): > 100 µM | GI50 (NCI-H226 lung): > 100 µM | TGI (NCI-H226 lung): > 100 µM | GI50 (U251 CNS): > 100 µM | TGI (U251 CNS): > 100 µM | GI50 (ACHN renal): > 100 µM | TGI (ACHN renal): > 100 µM | GI50 (SK-OV-3 ovarian): > 100 µM | TGI (SK-OV-3 ovarian): > 100 µM
